According to patent US9346812B2, “Substituted pyrrolopyrimidine compounds, compositions thereof, and methods of treatment therewith” (Signal Pharmaceutical LLC, priority 2013, dated 2016):

Tested on: CAL51 cell proliferation
Assay: Cell Titer Glo Proliferation Assay (CAL51)
Format: cell-based, human
Details: Homo sapiens, CAL-51; CAL51 cell proliferation, 72 h, Cell Titer Glo luminescence; read-out: Act. Level
In short: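 CAL51 triple-negative breast cancer cells in DMEM or RPMI with 10% FBS were treated after overnight culture with serially diluted compound at 0.2% final DMSO. After 72 h, viability was read as CellTiter-Glo luminescence.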

SMILES | IC50 [nM]
Cc1cc(C(=O)N(C)C)ccc1Nc1nc(OC2CCOCC2)c2c(-c3ncco3)c[nH]c2n1 [Example 115, N,N,3-trimethyl-4-(5-(oxazol-2-yl)-4-(tetrahydro-2H-pyran-4-yloxy)-7H-pyrrolo[2,3-d]pyrimidin-2-ylamino)benzamide] | 400 to 1000
Cc1cc(C(=O)N(C)C)ccc1Nc1nc(OC2CCOCC2)c2c(-c3ccc4nc(N)[nH]c4c3)c[nH]c2n1 [Example 116, 4-(5-(2-amino-1H-benzo[d]imidazol-6-yl)-4-(tetrahydro-2H-pyran-4-yloxy)-7H-pyrrolo[2,3-d]pyrimidin-2-ylamino)-N,N,3-trimethylbenzamide] | < 100
Cc1cc(-c2c[nH]c3nc(Nc4ccc(C(=O)N(C)C)cc4C)nc(OC4CCOCC4)c23)ccn1 [Example 117, N,N,3-trimethyl-4-(5-(2-methyl-pyridin-4-yl)-4-(tetrahydro-2H-pyran-4-yloxy)-7H-pyrrolo[2,3-d]pyrimidin-2-ylamino)benzamide] | < 100
CNC(=O)c1ccc(Nc2nc(OC)c3c(-c4ccc(OC)nc4)c[nH]c3n2)c(OC)c1 [Example 118, 3-methoxy-4-(4-methoxy-5-(6-methoxypyridin-3-yl)-7H-pyrrolo [2,3-d]pyrimidin-2-ylamino)-N-methylbenzamide] | 100 to 400
CNC(=O)c1ccc(Nc2nc(OC3CCOCC3)c3c(-c4ccc(OC)nc4)c[nH]c3n2)c(OC)c1 [Example 119, 3-methoxy-4-(5-(6-methoxypyridin-3-yl)-4-(tetrahydro-2H-pyran-4-yloxy)-7H-pyrrolo[2,3-d]pyrimidin-2-ylamino)-N-methylbenzamide] | < 100
COCCNC(=O)c1ccc(Nc2nc(OC3CCOCC3)c3c(-c4ccc5nc(C)oc5c4)c[nH]c3n2)c(OC)c1 [Example 120, 3-methoxy-N-(2-methoxyethyl)-4-(5-(2-methylbenzo[d]oxazol-6-yl)-4-(tetrahydro-2H-pyran-4-yloxy)-7H-pyrrolo[2,3-d]pyrimidin-2-ylamino)benzamide] | < 100
Cc1nc2ccc(-c3c[nH]c4nc(Nc5ccc(C(=O)N(C)C)cc5C)nc(O[C@@H]5CCCOC5)c34)cc2o1 [Example 121, (R)-N,N,3-trimethyl-4-(5-(2-methylbenzo[d]oxazol-6-yl)-4-(tetrahydro-2H-pyran-3-yloxy)-7H-pyrrolo[2,3-d]pyrimidin-2-ylamino)benzamide] | 100 to 400
CNC(=O)c1ccc(Nc2nc(OC3CCOCC3)c3c(-c4cn[nH]c4)c[nH]c3n2)c(OC)c1 [Example 122, 4-(5-(1H-pyrazol-4-yl)-4-(tetrahydro-2H-pyran-4-yloxy)-7H-pyrrolo[2,3-d]pyrimidin-2-ylamino)-3-methoxy-N-methylbenzamide] | < 100
CNC(=O)c1ccc(-c2c[nH]c3nc(Nc4ccc(C(=O)NC)cc4OC)nc(OC4CCOCC4)c23)cc1 [Example 123, 3-methoxy-N-methyl-4-(5-(4-(methylcarbamoyl)phenyl)-4-(tetrahydro-2H-pyran-4-yloxy)-7H-pyrrolo[2,3-d]pyrimidin-2-ylamino) benzamide] | < 100
CNC(=O)c1ccc(-c2c[nH]c3nc(Nc4ccc(C(=O)NC)cc4OC)nc(OC)c23)cc1 [Example 124, 3-methoxy-4-(4-methoxy-5-(4-(methylcarbamoyl)phenyl)-7H-pyrrolo[2,3-d]pyrimidin-2-ylamino)-N-methylbenzamide] | 100 to 400
CNC(=O)c1ccc(Nc2nc(OC(C)C)c3c(-c4ccc5nc(C)oc5c4)c[nH]c3n2)c(OC)c1 [Example 125, 4-(4-isopropoxy-5-(2-methylbenzo[d]oxazol-6-yl)-7H-pyrrolo[2,3-d]pyrimidin-2-ylamino)-3-methoxy-N-methylbenzamide] | < 100
CNC(=O)c1ccc(Nc2nc(OC3CCOCC3)c3c(-c4ccc(N(C)C)nc4)c[nH]c3n2)c(OC)c1 [Example 126, 4-(5-(6-(dimethylamino)pyridin-3-yl)-4-(tetrahydro-2H-pyran-4-yloxy)-7H-pyrrolo[2,3-d]pyrimidin-2-ylamino)-3-methoxy-N-methylbenzamide] | 400 to 1000
COc1cc(C(=O)NCCN(C)C)ccc1Nc1nc(OC2CCOCC2)c2c(-c3ccc4nc(C)oc4c3)c[nH]c2n1 [Example 127, N-(2-(dimethylamino)ethyl)-3-methoxy-4-(5-(2-methylbenzo[d]oxazol-6-yl)-4-(tetrahydro-2H-pyran-4-yloxy)-7H-pyrrolo[2,3-d]pyrimidin-2-ylamino)benzamide] | < 100
Cc1nc2ccc(-c3c[nH]c4nc(Nc5ccc(C(=O)N(C)C)cc5C)nc(OC5CCOCC5)c34)cc2[nH]1 [Example 128, N,N,3-trimethyl-4-(5-(2-methyl-1H-benzo[d]imidazol-6-yl)-4-(tetrahydro-2H-pyran-4-yloxy)-7H-pyrrolo[2,3-d]pyrimidin-2-ylamino)benzamide] | < 100
CNC(=O)c1ccc(Nc2nc(OC)c3c(-c4cn[nH]c4)c[nH]c3n2)c(OC)c1 [Example 129, 3-methoxy-4-(4-methoxy-5-(1H-pyrazol-4-yl)-7H-pyrrolo[2,3-d]pyrimidin-2-ylamino)-N-methylbenzamide] | 100 to 400
CNCCNC(=O)c1ccc(Nc2nc(OC3CCOCC3)c3c(-c4ccc5nc(C)oc5c4)c[nH]c3n2)c(OC)c1 [Example 130, 3-methoxy-N-(2-(methylamino)ethyl)-4-(5-(2-methylbenzo[d]oxazol-6-yl)-4-(tetrahydro-2H-pyran-4-yloxy)-7H-pyrrolo [2,3-d]pyrimidin-2-ylamino)benzamide] | 100 to 400
CNC(=O)c1ccc(Nc2nc(OC3CCOCC3)c3c(-c4ccnc(N(C)C)c4)c[nH]c3n2)c(OC)c1 [Example 131, 4-(5-(2-(dimethylamino)pyridin-4-yl)-4-(tetrahydro-2H-pyran-4-yloxy)-7H-pyrrolo[2,3-d]pyrimidin-2-ylamino)-3-methoxy-N-methylbenzamide] | < 100
CNC(=O)c1ccc(Nc2nc(O[C@H]3CCOC3)c3c(-c4ccc5nc(C)oc5c4)c[nH]c3n2)c(C)c1 [Example 133, (S)-N,3-dimethyl-4-(5-(2-methylbenzo[d]oxazol-6-yl)-4-(tetrahydrofuran-3-yloxy)-7H-pyrrolo[2,3-d]pyrimidin-2-ylamino)benzamide] | < 100
CNC(=O)c1ccc(Nc2nc(OC3CCOCC3)c3c(-c4ccc5nc(C)oc5c4C)c[nH]c3n2)c(OC)c1 [Example 135, 4-(5-(2,7-dimethylbenzo[d]oxazol-6-yl)-4-(tetrahydro-2H-pyran-4-yloxy)-7H-pyrrolo[2,3-d]pyrimidin-2-ylamino)-3-methoxy-N-methylbenzamide] | 1000 to 10000
CNC(=O)c1ccc(Nc2nc(OC3CCOCC3)c3c(-c4cc5oc(C)nc5cc4C)c[nH]c3n2)c(OC)c1 [Example 136, 4-(5-(2,5-dimethylbenzo[d]oxazol-6-yl)-4-(tetrahydro-2H-pyran-4-yloxy)-7H-pyrrolo[2,3-d]pyrimidin-2-ylamino)-3-methoxy-N-methylbenzamide] | 1000 to 10000
CNC(=O)c1ccc(Nc2nc(O[C@H]3CC[C@H](O)CC3)c3c(-c4ccc5nc(C)oc5c4)c[nH]c3n2)c(OC)c1 [Example 137, 4-(4-((1r,4r)-4-hydroxycyclo-hexyloxy)-5-(2-methylbenzo[d]oxazol-6-yl)-7H-pyrrolo[2,3-d]pyrimidin-2-ylamino)-3-methoxy-N-methylbenzamide] | < 100
CNCCOc1nc(Nc2ccc(C(=O)NC)cc2OC)nc2[nH]cc(-c3ccc4nc(C)oc4c3)c12 [Example 138, 3-methoxy-N-methyl-4-(4-(2-(methylamino)ethoxy)-5-(2-methylbenzo[d]oxazol-6-yl)-7H-pyrrolo[2,3-d]pyrimidin-2-ylamino)benzamide] | 1000 to 10000
CNC(=O)c1ccc(Nc2nc(OCCOC)c3c(-c4ccc5nc(C)oc5c4)c[nH]c3n2)c(OC)c1 [Example 139, 3-methoxy-4-(4-(2-methoxyethoxy)-5-(2-methylbenzo[d]oxazol-6-yl)-7H-pyrrolo[2,3-d]pyrimidin-2-ylamino)-N-methylbenzamide] | < 100
Cc1cc(C(=O)N(C)C)ccc1Nc1nc(OC2CCOCC2)c2c(-c3ccnc(C#N)c3)c[nH]c2n1 [Example 140, 4-(5-(2-cyanopyridin-4-yl)-4-(tetra-hydro-2H-pyran-4-yloxy)-7H-pyrrolo[2,3-d]pyrimidin-2-ylamino)-N,N,3-trimethylbenzamide] | 100 to 400
CNC(=O)c1ccc(Nc2nc(OC)c3c(-c4ccc(-c5ncc[nH]5)cc4)c[nH]c3n2)c(OC)c1 [Example 141, 4-(5-(4-(1H-imidazol-2-yl)phenyl)-4-methoxy-7H-pyrrolo[2,3-d]pyrimidin-2-ylamino)-3-methoxy-N-methylbenzamide] | 100 to 400
CNC(=O)c1ccc(Nc2nc(OC3CCOCC3)c3c(-c4ccnc(N)c4)c[nH]c3n2)c(OC)c1 [Example 142, 4-(5-(2-aminopyridin-4-yl)-4-(tetra-hydro-2H-pyran-4-yloxy)-7H-pyrrolo[2,3-d]pyrimidin-2-ylamino)-3-methoxy-N-methylbenzamide] | < 100
CNC(=O)c1ccc(Nc2nc(OC3CCOCC3)c3c(-c4ccnc(OC)c4)c[nH]c3n2)c(OC)c1 [Example 143, 3-methoxy-4-(5-(2-methoxypyridin-4-yl)-4-(tetrahydro-2H-pyran-4-yloxy)-7H-pyrrolo[2,3-d]pyrimidin-2-ylamino)-N-methylbenzamide] | < 100
CNC(=O)c1cccc(-c2c[nH]c3nc(Nc4ccc(C(=O)NC)cc4C)nc(OC4CCOCC4)c23)c1 [Example 144, N,3-dimethyl-4-(5-(3-(methyl-carbamoyl)phenyl)-4-(tetrahydro-2H-pyran-4-yloxy)-7H-pyrrolo[2,3-d]pyrimidin-2-ylamino)benzamide] | 1000 to 10000
CNC(=O)c1ccc(Nc2nc(OC3CCOCC3)c3c(-c4ccnc(O)c4)c[nH]c3n2)c(OC)c1 [Example 147, 4-(5-(2-hydroxypyridin-4-yl)-4-(tetrahydro-2H-pyran-4-yloxy)-7H-pyrrolo[2,3-d]pyrimidin-2-ylamino)-3-methoxy-N-methylbenzamide] | 100 to 400
